Laboratory results as given in patent US20130053430A1, “MODULATION OF CETP EXPRESSION” (Isis Pharmaceuticals, Inc., priority 2010, published 2013).
Strand notation (5' to 3'): a small letter for the sugar, then the base; units joined by * are phosphorothioate-linked, units joined directly phosphodiester-linked; [ ] holds rarer units or linkages, { } end groups; capitals alone tell only the bases. e = 2'-O-(2-methoxyethyl) (MOE); [5mC] = 5-methylcytosine; d = 2'-deoxy (DNA)

Key:
human CETP mRNA [1] = assay: Antisense inhibition of human CETP mRNA in primary hepatocytes from huCETP transgenic mice (Example 4); type: cell-based, mouse; conditions: cytofectin, ~24 hours
Procedure: Transgenic mice expressing human CETP, controlled by its natural flanking region, increase expression of this gene in response to hypercholesterolemia (Jiang, X. C. et al., J. Clin. Invest. 1992. 90: 1290-1295). These mice were utilized for the following studies. Antisense oligonucleotides targeted to a CETP nucleic acid and described in Example 1 were tested for their effect on CETP mRNA transcript in vitro. Cultured primary hepatocytes from huCETP transgenic mice, at a density of 17,500 cells per well in a 96-well plate, were transfected using cytofectin reagent with 100 nM or 200 nM antisense oligonucleotide. After approximately 24 hours, RNA was isolated from the cells and CETP mRNA levels were measured by quantitative real-time PCR. CETP mRNA transcript levels were adjusted according to total RNA content, as measured by the house-keeping gene, GAPDH mRNA levels. Results are presented in Table 6 as percent inhibition of CETP, relative to untreated control cells.

human CETP mRNA [2] = assay: Antisense inhibition of human CETP mRNA in SW872 liposarcoma cells (Example 1); type: cell-based; conditions: 150 nM antisense oligonucleotide, lipofectin, ~24 hours, relative to untreated control cells
Procedure: Antisense oligonucleotides targeted to a CETP nucleic acid were tested for their effect on CETP mRNA transcript in vitro. Cultured SW872 liposarcoma cells at a density of 50,000 cells per well in a 24-well plate were transfected using lipofectin reagent with 150 nM antisense oligonucleotide. After approximately 24 hours, RNA was isolated from the cells and CETP mRNA levels were measured by quantitative real-time PCR. A human primer probe set (forward sequence […], designated herein as SEQ ID NO: 38; reverse sequence GGCTCACGCCTTTGCTGTT, designated herein as SEQ ID NO: 39; probe sequence […], designated herein as SEQ ID NO: 40) was used to quantitate CETP mRNA. CETP mRNA transcript levels were adjusted according to total RNA content, as measured by the house-keeping gene, GAPDH mRNA levels. GAPDH was measured using a primer probe set with the sequence as set forth in SEQ ID NOs: 10, 11, 13. Results are presented as percent inhibition of CETP, relative to untreated control cells.
The antisense oligonucleotides in Table 3 are 5-10-5 gapmers, where the gap segment comprises ten 2′-deoxynucleosides and each wing segment comprises five 2′-MOE nucleosides. Each nucleotide in the 5′ wing segment and each nucleotide in the 3′ wing segment has a 2′-MOE modification. The internucleoside linkages throughout each gapmer are phosphorothioate (P═S) linkages. All cytosine residues throughout each gapmer are 5-methylcytosines. ‘Target start site’ indicates the 5′-most nucleotide to which the antisense oligonucleotide is targeted. ‘Target stop site’ indicates the 3′-most nucleotide to which the antisense oligonucleotide is targeted. All the antisense oligonucleotides listed in Table 3 target human CETP mRNA, designated herein as SEQ ID NO: 1 (GENBANK Accession No. M30185.1).

[3] = Plasma cholesterol and triglyceride levels in huApoB/huCETP/mLDLr mouse model (Example 7); type: in vivo, mice; conditions: huApoB+/−huCETP+/−mLDLr+/− mice (Groups B-E), ASO 25 mg/kg s.c. twice/week
Excerpt: The huApoB^+/−huCETP^+/−mLDLr^+/− mice were divided into five groups of 5-7 mice each. […] The saline-injected group served as the control group to which oligonucleotide-treated groups were compared. […] This group served a negative control for the effects of the antisense oligonucleotides against CETP. The groups are further described in Table 27, and are designated letters A-F, by which they will be referred from henceforth.
HDL and LDL cholesterol were individually measured by HPLC. Triglyceride levels were measured on weeks 0, 3 and 6 with the use of a commercially available triglyceride kit (DCL Triglyceride Reagent; Diagnostic Chemicals Ltd.).

Compound	Percent inhibition of human CETP mRNA (human CETP mRNA [1]; 100 nM) [%]	Percent inhibition of human CETP mRNA (human CETP mRNA [1]; 200 nM) [%]	% inhibition (human CETP mRNA [2]) [%]	other results
ISIS 349487: 5-10-5 MOE gapmer CCCATCAGGCTGAGCATGAG (e[5mC]*e[5mC]*e[5mC]*eA*eT*d[5mC]*dA*dG*dG*d[5mC]*dT*dG*dA*dG*d[5mC]*eA*eT*eG*eA*eG)	84	68	73	–
ISIS 349448: 5-10-5 MOE gapmer CCGTATATGTATGTCCGCCC (e[5mC]*e[5mC]*eG*eT*eA*dT*dA*dT*dG*dT*dA*dT*dG*dT*d[5mC]*e[5mC]*eG*e[5mC]*e[5mC]*e[5mC])	53	40	0	–
ISIS 349481: 5-10-5 MOE gapmer AGGTAGGAGGCTGTGATGAC (eA*eG*eG*eT*eA*dG*dG*dA*dG*dG*d[5mC]*dT*dG*dT*dG*eA*eT*eG*eA*e[5mC])	79	65	66	–
ISIS 133837: 5-10-5 MOE gapmer TCCACCAGCAGGTGCTCAGG (eT*e[5mC]*e[5mC]*eA*e[5mC]*d[5mC]*dA*dG*d[5mC]*dA*dG*dG*dT*dG*d[5mC]*eT*e[5mC]*eA*eG*eG)	–	–	70	–
ISIS 349498: 5-10-5 MOE gapmer CTGGACGGTAGTCACGATAT (e[5mC]*eT*eG*eG*eA*d[5mC]*dG*dG*dT*dA*dG*dT*d[5mC]*dA*d[5mC]*eG*eA*eT*eA*eT)	76	84	80	–
ISIS 349451: 5-10-5 MOE gapmer GCAGCCAGCATGGTTATCAG (eG*e[5mC]*eA*eG*e[5mC]*d[5mC]*dA*dG*d[5mC]*dA*dT*dG*dG*dT*dT*eA*eT*e[5mC]*eA*eG)	42	54	23	–
ISIS 349477: 5-10-5 MOE gapmer GATCTCTTTGCAGATCTGTC (eG*eA*eT*e[5mC]*eT*d[5mC]*dT*dT*dT*dG*d[5mC]*dA*dG*dA*dT*e[5mC]*eT*eG*eT*e[5mC])	44	47	41	–
ISIS 349449: 5-10-5 MOE gapmer CGAGCCGTTCAGCCTGGAGC (e[5mC]*eG*eA*eG*e[5mC]*d[5mC]*dG*dT*dT*d[5mC]*dA*dG*d[5mC]*d[5mC]*dT*eG*eG*eA*eG*e[5mC])	68	63	28	–
ISIS 349450: 5-10-5 MOE gapmer GCAGTGGTGTGTAAGTGGCC (eG*e[5mC]*eA*eG*eT*dG*dG*dT*dG*dT*dG*dT*dA*dA*dG*eT*eG*eG*e[5mC]*e[5mC])	89	59	21	–
ISIS 349473: 5-10-5 MOE gapmer AGCAGCTTATGGAAAGACAG (eA*eG*e[5mC]*eA*eG*d[5mC]*dT*dT*dA*dT*dG*dG*dA*dA*dA*eG*eA*e[5mC]*eA*eG)	55	61	72	–
ISIS 349453: 5-10-5 MOE gapmer GCATTGCCCAGCAGGGCCAG (eG*e[5mC]*eA*eT*eT*dG*d[5mC]*d[5mC]*d[5mC]*dA*dG*d[5mC]*dA*dG*dG*eG*e[5mC]*e[5mC]*eA*eG)	2	26	45	–
ISIS 349495: 5-10-5 MOE gapmer AGGAATTTCACCATCACTGA (eA*eG*eG*eA*eA*dT*dT*dT*d[5mC]*dA*d[5mC]*d[5mC]*dA*dT*d[5mC]*eA*e[5mC]*eT*eG*eA)	61	74	58	–
ISIS 349464: 5-10-5 MOE gapmer CTTCCACCAGCTCCACCTGG (e[5mC]*eT*eT*e[5mC]*e[5mC]*dA*d[5mC]*d[5mC]*dA*dG*d[5mC]*dT*d[5mC]*d[5mC]*dA*e[5mC]*e[5mC]*eT*eG*eG)	8	56	50	–
ISIS 349457: 5-10-5 MOE gapmer TCTGGATCACCTTGGCAGTC (eT*e[5mC]*eT*eG*eG*dA*dT*d[5mC]*dA*d[5mC]*d[5mC]*dT*dT*dG*dG*e[5mC]*eA*eG*eT*e[5mC])	42	30	52	–
ISIS 349456: 5-10-5 MOE gapmer TCGTGGTTCAACACCAGGAG (eT*e[5mC]*eG*eT*eG*dG*dT*dT*d[5mC]*dA*dA*d[5mC]*dA*d[5mC]*d[5mC]*eA*eG*eG*eA*eG)	74	51	68	–
ISIS 349503: 5-10-5 MOE gapmer GCGGTGATCATTGACTGCAG (eG*e[5mC]*eG*eG*eT*dG*dA*dT*d[5mC]*dA*dT*dT*dG*dA*d[5mC]*eT*eG*e[5mC]*eA*eG)	83	89	81	–
ISIS 349507: 5-10-5 MOE gapmer TGATGATGTCGAAGAGGCTC (eT*eG*eA*eT*eG*dA*dT*dG*dT*d[5mC]*dG*dA*dA*dG*dA*eG*eG*e[5mC]*eT*e[5mC])	71	73	19	–
ISIS 349509: 5-10-5 MOE gapmer CATCTGCAGCAGCAGGAAGC (e[5mC]*eA*eT*e[5mC]*eT*dG*d[5mC]*dA*dG*d[5mC]*dA*dG*d[5mC]*dA*dG*eG*eA*eA*eG*e[5mC])	22	83	70	–
ISIS 349478: 5-10-5 MOE gapmer ATGATGTTAGAGATGACGTT (eA*eT*eG*eA*eT*dG*dT*dT*dA*dG*dA*dG*dA*dT*dG*eA*e[5mC]*eG*eT*eT)	6	33	48	–
ISIS 349493: 5-10-5 MOE gapmer TGTTTTGGCAGGAGATCTTG (eT*eG*eT*eT*eT*dT*dG*dG*d[5mC]*dA*dG*dG*dA*dG*dA*eT*e[5mC]*eT*eT*eG)	51	62	67	–
ISIS 349484: 5-10-5 MOE gapmer ACCAGAAGTACAGCATGCGG (eA*e[5mC]*e[5mC]*eA*eG*dA*dA*dG*dT*dA*d[5mC]*dA*dG*d[5mC]*dA*eT*eG*e[5mC]*eG*eG)	34	52	38	–
O=C(O)c1cccnc1 [Nicotinic acid, nicotinic acid, reference compound]	–	–	–	% HDL/total cholesterol ([3]; Week 0): 23%; HDL cholesterol levels ([3]; Week 0): 45 mg/dL; LDL cholesterol levels ([3]; Week 0): 122 mg/dL; Total cholesterol levels ([3]; Week 0): 195 mg/dL; Triglyceride levels ([3]; Week 0): 134 mg/dL; % HDL/total cholesterol ([3]; Week 3): 34%; HDL cholesterol levels ([3]; Week 3): 57 mg/dL; LDL cholesterol levels ([3]; Week 3): 102 mg/dL; Total cholesterol levels ([3]; Week 3): 169 mg/dL; Triglyceride levels ([3]; Week 3): 108 mg/dL; % HDL/total cholesterol ([3]; Week 6): 39%; HDL cholesterol levels ([3]; Week 6): 65 mg/dL; LDL cholesterol levels ([3]; Week 6): 102 mg/dL; Total cholesterol levels ([3]; Week 6): 170 mg/dL; Triglyceride levels ([3]; Week 6): 138 mg/dL
